Where two headings read alike, the source gives them in different places.
How the values were obtained:
[1] = test system: HeLa; test: Antiproliferative assay (resazurin, 72 h); assay type: cell-based, human; details: 72 h incubation, read-out: Growth Inhibition IC50 HeLa
Experimental: (§1) Cells were seeded in 96-well plates (5×10^3 cells/well) containing 50 μL growth medium for 24 hours. After medium removal, 100 μL fresh medium containing individual analog compound at different concentrations was added to each well and incubated at 37° C. for 72 h. […] After 72 h of incubation, 20 μL of resazurin was added for 2 h before recording fluorescence at 560 nm (excitation) and 590 nm (emission) using a Victor microtiter plate fluorimeter (Perkin-Elmer, USA).

[2] = test system: A549; test: Antiproliferative assay (resazurin, 72 h); assay type: cell-based, human; details: A549, 72 h incubation, read-out: Growth Inhibition IC50 A549
Experimental: as §1

[3] = test system: MDA-MB-231; test: Antiproliferative assay (resazurin, 72 h); assay type: cell-based, human; details: MDA-MB-231, 72 h incubation, read-out: Growth Inhibition IC50 MDA-MB-231
Experimental: as §1

| SMILES | melting point | IC50 ([1]; Homo sapiens, 72 h) [µM] | IC50 ([2]; Homo sapiens, A549, 72 h) [µM] | IC50 ([3]; Homo sapiens, MDA-MB-231, 72 h) [µM] | IC50 ([1]; Homo sapiens) [µM] | IC50 ([2]; Homo sapiens) [µM] | IC50 ([3]; Homo sapiens) [µM] | IC50 [1] [µM] | IC50 [2] [µM] | IC50 [3] [µM] |
| --- | --- | --- | --- | --- | --- | --- | --- | --- | --- | --- |
| COc1ccc(-c2cccc(-c3cc(OC)c(OC)c(OC)c3)n2)cc1OC [Compound 4c, 2-(3,4-Dimethoxyphenyl)-6-(3,4,5-trimethoxyphenyl)pyridine] | 107 to 108 °C | 0.026 | > 50 | 2.49 | – | – | – | – | – | – |
| COc1cccc(-c2cccc(-c3ccc(OC)cc3OC)n2)c1 [Compound 4p, 2-(2,4-Dimethoxyphenyl)-6-(3-methoxyphenyl)pyridine] | – | 0.067 | 0.56 | 9.02 | – | – | – | – | – | – |
| COc1cc(-c2cccc(-c3cc(OC)c(OC)c(OC)c3)n2)cc(OC)c1OC [Compound 3a, 2,6-Bis(3,4,5-trimethoxyphenyl)pyridine] | – | 1 | > 50 | 11 | – | – | – | – | – | – |
| COc1ccc(-c2cccc(-c3ccc(O)cc3)n2)cc1OC [Compound 4b, 4-(6-(3,4-Dimethoxyphenyl)pyridin-2-yl)phenol] | 70 to 72 °C (dec.) | 0.86 | > 100 | > 50 | – | – | – | – | – | – |
| COc1ccc(-c2cccc(-c3cc(OC)ccc3OC)n2)c(OC)c1 [Compound 4m, 2-(2,4-Dimethoxyphenyl)-6-(2,5-dimethoxyphenyl)pyridine] | – | 0.034 | 0.33 | 0.034 | – | – | – | – | – | – |
| COc1ccc(-c2ccc(-c3cc(OC)c(OC)c(OC)c3)nc2)cc1OC [Compound 4i, 5-(3,4-Dimethoxyphenyl)-2-(3,4,5-trimethoxyphenyl)pyridine] | 131 to 132 °C | > 25 | > 50 | > 50 | – | – | – | – | – | – |
| COc1cc(-c2ccc(Br)cn2)cc(OC)c1OC [Compound 2e, 5-Bromo-2-(3,4,5-trimethoxyphenyl)pyridine] | 49 to 50 °C | 14 | > 25 | 12 | – | – | – | – | – | – |
| COc1ccc(-c2cccc(-c3ccc(OC)c(OC)c3)n2)c(OC)c1 [Compound 4e, 2-(2,4-Dimethoxyphenyl)-6-(3,4-dimethoxyphenyl)pyridine] | 100 to 101 °C | > 50 | > 25 | 13 | – | – | – | – | – | – |
| COc1cc(-c2cccc(Br)n2)cc(OC)c1OC [Compound 2a, 2-Bromo-6-(3,4,5-trimethoxyphenyl)pyridine] | 100 to 102 °C | 12 | 9 | 6 | – | – | – | – | – | – |
| COc1ccc(-c2cccc(Br)n2)cc1 [Compound 2d, 2-Bromo-6-(4-methoxyphenyl)pyridine] | 99 to 100 °C | 2 | 2 | 10 | – | – | – | – | – | – |
| COc1cc(-c2cccc(-c3ccc(O)cc3)n2)cc(OC)c1OC [Compound 4a, 4-(6-(3,4,5-Trimethoxyphenyl)pyridin-2-yl)phenol] | 92 to 94 °C (dec.) | 8 | > 25 | 10 | – | – | – | – | – | – |
| COc1cc(-c2ccnc(-c3cc(OC)c(OC)c(OC)c3)c2)cc(OC)c1OC [Compound 3f, 2,4-Bis(3,4,5-trimethoxyphenyl)pyridine] | – | – | – | – | 0.79 | 7.86 | 2.63 | – | – | – |
| COc1ccc(-c2cccc(-c3ccc(OC)cc3)n2)cc1 [Compound 3d, 2,6-Bis(4-methoxyphenyl)pyridine] | 156 to 158 °C | 2 | > 100 | 9 | – | – | – | – | – | – |
| COc1ccc(-c2cccc(-c3ccc(OC)c(OC)c3)n2)cc1 [Compound 4d, 2-(3,4-Dimethoxyphenyl)-6-(4-methoxyphenyl)pyridine] | – | > 25 | > 25 | > 25 | – | – | – | – | – | – |
| COc1ccc(-c2cccc(-c3c(OC)cccc3OC)n2)c(OC)c1 [Compound 4o, 2-(2,4-Dimethoxyphenyl)-6-(2,6-dimethoxyphenyl)pyridine] | 155 to 156 °C | > 50 | > 100 | > 100 | – | – | – | – | – | – |
| COc1ccc(-c2ccc(Br)cn2)c(OC)c1 [Compound 2f, 5-Bromo-2-(2,4-dimethoxyphenyl)pyridine] | – | > 25 | > 100 | > 100 | – | – | – | – | – | – |
| COc1ccc(-c2cccc(-c3c(OC)cc(OC)cc3OC)n2)c(OC)c1 [Compound 4q, 2-(2,4-Dimethoxyphenyl)-6-(2,4,6-trimethoxyphenyl)pyridine] | 144 to 145 °C | > 25 | > 50 | > 50 | – | – | – | – | – | – |
| COc1ccc(-c2cccc(-c3ccc(O)cc3)n2)cc1 [Compound 4j, 4-(6-(4-Methoxyphenyl)pyridine-2-yl)phenol] | 133 to 134 °C | > 50 | > 25 | > 25 | – | – | – | – | – | – |
| COc1ccc(-c2cccc(-c3ccccc3OC)n2)c(OC)c1 [Compound 4r, 2-(2,4-Dimethoxyphenyl)-6-(2-methoxyphenyl)pyridine] | – | > 25 | > 50 | > 25 | – | – | – | – | – | – |
| COc1ccc(-c2cccc(-c3ccc(OC)cc3OC)n2)c(OC)c1 [Compound 3c, 2,6-Bis(2,4-dimethoxyphenyl)pyridine] | 113 to 114 °C | 0.011 | 0.079 | 0.075 | – | – | – | – | – | – |
| COc1cc(-c2ccc(-c3cc(OC)c(OC)c(OC)c3)nc2)cc(OC)c1OC [Compound 3e, 2,5-Bis(3,4,5-trimethoxyphenyl)pyridine] | – | 2.68 | > 100 | 11 | – | – | – | – | – | – |
| COc1ccc(-c2cccc(-c3cccc(OC)c3OC)n2)c(OC)c1 [Compound 4n, 2-(2,3-Dimethoxyphenyl)-6-(2,4-dimethoxyphenyl)pyridine] | 79 to 80 °C | > 52 | > 51 | > 50 | – | – | – | – | – | – |
| COc1ccc(-c2cccc(-c3ccc(OC)c(O)c3)n2)c(OC)c1 [Compound 5, 2-(2,4-Dimethoxyphenyl)-6-(3-hydroxy-4-methoxyphenyl) pyridin-1-ium chloride] | – | – | – | – | – | – | – | 0.0026 | 0.042 | 0.0054 |
| COc1ccc(-c2cccc(Br)n2)c(OC)c1 [Compound 2c, 2-Bromo-6-(2,4-dimethoxyphenyl)pyridine] | – | > 50 | > 50 | > 100 | – | – | – | – | – | – |
| COc1ccc(-c2cccc(-c3ccc(OC)c(OC)c3)n2)cc1OC [Compound 3b, 2,6-Bis(3,4-dimethoxyphenyl)pyridine] | 140 to 141 °C | > 25 | > 50 | > 50 | – | – | – | – | – | – |
| COc1ccc(-c2cccc(Br)n2)cc1OC [Compound 2b, 2-Bromo-6-(3,4-dimethoxyphenyl)pyridine] | – | > 50 | > 25 | > 25 | – | – | – | – | – | – |
| COc1ccc(-c2ccnc(-c3ccc(OC)cc3OC)c2)c(OC)c1 [Compound 3h, 2,4-Bis(2,4-dimethoxyphenyl)pyridine] | 95 to 97 °C | > 25 | > 50 | > 50 | – | – | – | – | – | – |
| COc1cc(OC)cc(-c2cccc(-c3ccc(OC)cc3OC)n2)c1 [Compound 4l, 2-(2,4-Dimethoxyphenyl)-6-(3,5-dimethoxyphenyl)pyridine] | – | > 50 | > 25 | > 25 | – | – | – | – | – | – |
| COc1ccc(-c2cccc(-c3cc(OC)c(OC)c(OC)c3)n2)cc1 [Compound 4f, 2-(4-Methoxyphenyl)-6-(3,4,5-trimethoxyphenyl)pyridine] | 112 to 114 °C | > 50 | > 50 | > 25 | – | – | – | – | – | – |
| COc1ccc(-c2cccc(-c3cc(OC)c(OC)c(OC)c3)n2)c(OC)c1 [Compound 4g, 2-(2,4-Dimethoxyphenyl)-6-(3,4,5-trimethoxyphenyl)pyridine] | 115 to 117 °C | 4.43 | 0.69 | > 100 | – | – | – | – | – | – |

Reference: patent US10017475B2, “Anti-vasculature and anti-tubulin combretastatin analogs for treatment of cancer” (XAVIER UNIVERSITY OF LOUISIANA, priority 2014, dated 2018)
